According to PMC7238042, “π-π-Stacked Poly(ε-caprolactone)-b-poly(ethylene glycol) Micelles Loaded with a Photosensitizer for Photodynamic Therapy” (Pharmaceutics, 2020):
Where two headings read alike, the source gives them in different places.

What was measured:
[1] = Circulation kinetics in A431 tumor-bearing mice (plasma Cy7 and mTHPC); conditions: mTHPC detection, i.v. 300 µg mTHPC/kg
Protocol: (§1) Mice were inoculated with 1 × 10^6 A431 cells suspended in 100 μL PBS subcutaneously into the right flank. […] Tumors were measured using a digital caliper. The tumor volume V (in mm^3) was calculated using the equation V = (π/6)LS^2, in which L is the largest and S is the smallest superficial diameter [30].
(§2) For the latter, mice were killed through cervical dislocation while under deep isoflurane anesthesia. […] The plasma supernatant was collected, extracted using acetonitrile/DMSO (4:1, v/v), and analyzed by high-performance liquid chromatography (HPLC) and a LI-COR Odyssey imaging system to quantify the amount of mTHPC and Cy7-labeled micelles, respectively, as previously described [38]. Plasma concentration curves were analyzed by non-compartmental analysis with the PKSolver add-in for Microsoft Excel [40].

[2] = Biodistribution in A431 tumor-bearing mice (Cy7 fluorescence and mTHPC HPLC); conditions: 4 h
Protocol: as §1
(§3) Tumors and a panel of organs (spleen, liver, lung, heart, kidney, skin, femur, and brain) were excised and imaged ex vivo by 2D fluorescence reflectance imaging (FRI) using a Pearl Trilogy imager from LI-COR and then stored at −80 °C until further processing for quantification. Organs and tumors from three untreated animals were used as controls.
(§4) To quantify the content of mTHPC and micelles in the tumors and the different organs, the excised tissue samples were treated as follows. First, 100 μL of RIPA lysis buffer was added to 100 mg of sliced tissues or organs. The mixture was homogenized by a tissue grinder (Percellys 24) at a speed of 6000/s for 60 s (for femur samples, 6000/s for 180 s) and the homogenate was subsequently aliquoted. To determine the mTHPC concentration in the samples, 1 volume of an aliquot of the homogenate (30 μL) was mixed with 120 μL of acetonitrile/DMSO (4:1 v/v) and vortexed for 1 min. The mixture was then centrifuged at 15,000× g for 10 min. Next, 50 μL of the obtained supernatant was injected into the HPLC system consisting of a Waters X Select Charged Surface Hybrid (CSH) C18 3.5 μm 4.6 × 150 mm column coupled with a fluorescence detector set at λex 420 nm and λem 650 nm to analyze mTHPC concentration [38]. The mobile phase was 0.1 % trifluoroacetic acid in acetonitrile/water (60:40, v/v) at a flow rate of 1 mL/min. The measuring range was from 0.005 to 4 μg/mL and the detection limit was 5 ng/mL. Calibration curves were obtained from a series of standard solutions of mTHPC in DMSO, to which 45 μL of the corresponding homogenized tissue samples obtained from control mice (i.e., not treated with any formulations) was added, followed by mTHPC extraction using acetonitrile/DMSO (4:1, v/v) and HPLC analysis.
(§5) To determine the concentration of Cy7-labeled micelles in the tissue homogenates, 1 volume of another aliquot of the homogenate (30 μL) was vortex-mixed with 2 volumes of RIPA lysis buffer (60 μL) for 1 min. The fluorescence of Cy7 in the mixture (20 μL) was detected at the 800 nm channel (i.e., λex 785 nm and λem 820 nm), using a LI-COR Odyssey scanner imaging system, and a calibration curve was obtained using samples with different concentrations of Cy7-labeled copolymer in a mixture of RIPA buffer (1 volume) and the corresponding homogenized tumor or organ samples (2 volumes) obtained from non-treated mice.

cells = tested on: cells; design: method as in PMID 32142290; conditions: cited from earlier work
A431 cells = tested on: A431 cells; design: method as in PMID 32142290; conditions: same conditions, cited from earlier work
in vivo [3] = conditions: female, Balb/c nude, mouse, plasma, iv, 300 ug/kg
Protocol: as §1, §2

in vivo [4] = conditions: female, Balb/c nude, mouse, intravenous, 0.3 mg/kg
Protocol: as §1, §3, §4, §5

[5] = Side effects after i.v. administration in mice; type: in vivo, Balb/c nude mice
HeLa cells = tested on: HeLa cells; design: method as in PMID 32142290; conditions: cited from earlier work
[6] = design: method as in PMID 25388924; conditions: cited from earlier work

Row | Compound | AUC [1] [h*%] | Half-life Phase α ([1]; estimated from first hour) [h] | Half-life Phase β ([1]; non-compartmental analysis) [h] | total mTHPC accumulation in liver [2] | total mTHPC accumulation in spleen or lung [2] | mTHPC concentration toxic to cells without illumination (cells; after 7 h) | mTHPC concentration toxic to cells without illumination (cells; after 24 h) [µg/mL] | EC50 (A431 cells; listed as free mTHPC) | EC50 (A431 cells) | Vd (in vivo [3]) [L/kg] | clearance (in vivo [3]) [mL/min/kg] | tissue uptake at 4 h (in vivo [4]; liver) [%ID/g] | tissue uptake at 24 h (in vivo [4]; liver) [%ID/g] | tissue uptake at 24 h (in vivo [4]; tumor, kidney, heart, femur) [%ID/g] | side effects after i.v. administration ([5]; 300 µg mTHPC/kg, free mTHPC in ethanol/propylene glycol/PBS 20:30:50, micelles ~1 mg polymer, also reported in ref 38) | loss of body weight ([5]; on average, within 24 h after i.v. injection) | EC50 (HeLa cells) | EC50 (HeLa cells; listed as free mTHPC) | quenching concentration ([6]; in aromatic-substituted thermosensitive micelles, 0.45 mg/mL polymer) [µg/mL] | quenching concentration ([6]; in corresponding non-aromatic micelles)
1 | Oc1cccc(-c2c3nc(c(-c4cccc(O)c4)c4ccc([nH]4)c(-c4cccc(O)c4)c4nc(c(-c5cccc(O)c5)c5ccc2[nH]5)CC4)C=C3)c1 [Free mTHPC, meta-tetra(hydroxyphenyl)chlorin] | 442 | ≤0.5 | 2.1 | ~ 15 % ID per liver | ~ 1 % ID per spleen or lung | higher than 50 µg/mL | > 20 | ~ 1.5 µg/mL | 1.6 ± 0.1 [38] µg/mL | 0.12 | 0.22 | ~15 | ~5 | 2 to 3 | tachypnea, passiveness immediately post-injection | ~ 1 g | 1.2 [38] µg/mL | ~ 1.5 µg/mL | – | –
2 | axially solketal-substituted silicon phthalocyanine [Si(sol)2Pc] | – | – | – | – | – | – | – | – | – | – | – | – | – | – | – | – | – | – | 16 | ~ 0.05 µg/mL
